Consider four molecules from paper PMC11649115, “In vitro safety evaluation of dopamine D3R antagonist, R-VK4-116, as a potential medication for the treatment of opioid use disorder” (PLOS ONE, 2024).

For data set [1], the target named is T1, CYP1A2 (Homo sapiens, UniProt P05177).
T1 sequence (P05177 1-516): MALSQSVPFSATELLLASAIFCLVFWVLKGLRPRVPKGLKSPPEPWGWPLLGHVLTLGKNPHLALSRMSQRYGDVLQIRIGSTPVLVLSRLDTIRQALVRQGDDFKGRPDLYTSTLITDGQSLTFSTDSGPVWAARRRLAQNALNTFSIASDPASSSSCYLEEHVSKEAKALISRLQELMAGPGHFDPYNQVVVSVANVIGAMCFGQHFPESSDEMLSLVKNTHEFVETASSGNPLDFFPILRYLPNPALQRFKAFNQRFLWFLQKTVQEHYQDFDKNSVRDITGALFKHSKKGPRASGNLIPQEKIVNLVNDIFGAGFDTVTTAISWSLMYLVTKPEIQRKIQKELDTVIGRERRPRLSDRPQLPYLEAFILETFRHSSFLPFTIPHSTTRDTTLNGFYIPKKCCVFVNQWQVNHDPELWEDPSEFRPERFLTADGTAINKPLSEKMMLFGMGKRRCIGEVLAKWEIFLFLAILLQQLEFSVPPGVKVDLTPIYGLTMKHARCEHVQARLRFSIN
Briefly: in vitro. The note with it: microsomes.

In data set [2] the target is T2, CYP2B6 (Homo sapiens, UniProt P20813).
T2 sequence (P20813 1-491): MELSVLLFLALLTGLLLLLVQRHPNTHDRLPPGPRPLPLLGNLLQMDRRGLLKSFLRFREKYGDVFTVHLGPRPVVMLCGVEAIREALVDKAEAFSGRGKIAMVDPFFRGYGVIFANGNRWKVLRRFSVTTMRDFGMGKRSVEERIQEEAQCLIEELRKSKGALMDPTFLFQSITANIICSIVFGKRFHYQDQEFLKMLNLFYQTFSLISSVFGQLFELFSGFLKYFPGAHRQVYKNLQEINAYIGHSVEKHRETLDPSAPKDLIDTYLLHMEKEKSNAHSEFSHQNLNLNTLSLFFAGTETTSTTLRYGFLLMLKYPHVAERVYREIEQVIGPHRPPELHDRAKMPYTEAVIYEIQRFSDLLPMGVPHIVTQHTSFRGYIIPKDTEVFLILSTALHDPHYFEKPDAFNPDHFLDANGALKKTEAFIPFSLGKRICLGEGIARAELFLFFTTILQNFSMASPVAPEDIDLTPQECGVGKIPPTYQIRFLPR
Description: CYP inhibition in human liver microsomes. The note with it: human, human liver microsomes, probe bupropion. On the technique in general: Microsomes from liver hold many membrane-bound enzymes, among them those of drug oxidation.

For data set [3], the target named is CYP2C19 (Homo sapiens, UniProt P33261). Description: CYP inhibition in human liver microsomes. As to conditions: human, human liver microsomes, probe mephenytoin.
Chain of CYP2C19 (P33261 whole entry): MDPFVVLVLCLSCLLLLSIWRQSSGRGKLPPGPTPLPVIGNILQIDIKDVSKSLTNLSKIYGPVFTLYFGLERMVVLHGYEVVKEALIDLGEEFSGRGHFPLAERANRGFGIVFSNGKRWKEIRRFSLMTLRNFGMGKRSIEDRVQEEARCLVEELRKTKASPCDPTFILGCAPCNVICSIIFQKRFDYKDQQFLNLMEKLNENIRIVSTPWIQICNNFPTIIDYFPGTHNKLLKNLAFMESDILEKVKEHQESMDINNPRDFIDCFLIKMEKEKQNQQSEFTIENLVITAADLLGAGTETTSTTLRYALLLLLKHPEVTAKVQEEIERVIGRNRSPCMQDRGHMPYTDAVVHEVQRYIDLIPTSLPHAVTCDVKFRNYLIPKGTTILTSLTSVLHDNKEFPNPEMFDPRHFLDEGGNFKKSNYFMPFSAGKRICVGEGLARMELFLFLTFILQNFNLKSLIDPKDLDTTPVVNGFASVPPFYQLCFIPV
The target in data set [4] is T3, CYP2C8 (Homo sapiens, UniProt P10632).
T3 sequence (P10632 1-490): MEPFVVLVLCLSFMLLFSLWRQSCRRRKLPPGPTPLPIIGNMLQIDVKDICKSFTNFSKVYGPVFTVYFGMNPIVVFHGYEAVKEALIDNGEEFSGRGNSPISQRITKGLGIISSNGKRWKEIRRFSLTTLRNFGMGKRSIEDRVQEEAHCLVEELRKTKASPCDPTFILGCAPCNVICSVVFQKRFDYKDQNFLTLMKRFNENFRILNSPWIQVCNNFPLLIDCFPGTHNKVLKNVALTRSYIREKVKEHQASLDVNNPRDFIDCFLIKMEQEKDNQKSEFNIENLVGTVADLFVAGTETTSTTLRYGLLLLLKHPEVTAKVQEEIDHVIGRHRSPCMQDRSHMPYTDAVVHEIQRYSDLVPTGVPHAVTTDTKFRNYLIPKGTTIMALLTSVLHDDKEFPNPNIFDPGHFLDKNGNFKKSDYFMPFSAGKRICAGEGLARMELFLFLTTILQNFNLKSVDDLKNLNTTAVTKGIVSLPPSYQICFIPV
Briefly: CYP inhibition in human liver microsomes. As to conditions: human, human liver microsomes, probe paclitaxel.

The target of data set [5] is CYP2C9 (Homo sapiens, UniProt P11712). Description: CYP inhibition in human liver microsomes. The note with it: human, human liver microsomes, probe diclofenac.
Chain of CYP2C9 (P11712 whole entry): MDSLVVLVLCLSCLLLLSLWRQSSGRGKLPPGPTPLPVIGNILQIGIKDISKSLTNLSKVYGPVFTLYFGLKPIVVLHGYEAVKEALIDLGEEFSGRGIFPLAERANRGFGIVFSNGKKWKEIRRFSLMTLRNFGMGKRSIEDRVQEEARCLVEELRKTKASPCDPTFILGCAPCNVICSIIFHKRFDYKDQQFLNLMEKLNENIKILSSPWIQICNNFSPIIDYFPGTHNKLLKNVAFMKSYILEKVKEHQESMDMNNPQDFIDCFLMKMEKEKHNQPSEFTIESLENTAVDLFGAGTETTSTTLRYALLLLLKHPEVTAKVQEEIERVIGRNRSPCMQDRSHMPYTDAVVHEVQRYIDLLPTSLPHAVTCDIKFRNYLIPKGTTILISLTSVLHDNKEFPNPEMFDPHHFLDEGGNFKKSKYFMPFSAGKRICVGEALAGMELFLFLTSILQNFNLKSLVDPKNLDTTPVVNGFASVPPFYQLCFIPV
Data set [6] addresses CYP3A4 (Homo sapiens, UniProt P08684). Description: in vitro. The note with it: microsomes.
Data set [7] concerns the target CYP2D6 (Homo sapiens, UniProt P10635). Briefly: CYP inhibition in human liver microsomes. As to conditions: human, human liver microsomes, probe bufuralol.
Data set [8] has as its system cardiovascular effects. The note with it: dogs ref 4, 9; cited from earlier work.
Data set [9] deals with T1, CYP1A2. Description: CYP inhibition in human liver microsomes. The note with it: human, human liver microsomes, probe phenacetin.
Data set [10] has as its target T3, CYP2C8. Briefly: in vitro. As to conditions: microsomes.
For data set [11], the target named is T4, MATE2-K (Homo sapiens, UniProt Q86VL8).
T4 construct: expressed in transfected cells; host or cells: MDCK-II cells
T4 sequence (Q86VL8 1-566 isoform Q86VL8-3): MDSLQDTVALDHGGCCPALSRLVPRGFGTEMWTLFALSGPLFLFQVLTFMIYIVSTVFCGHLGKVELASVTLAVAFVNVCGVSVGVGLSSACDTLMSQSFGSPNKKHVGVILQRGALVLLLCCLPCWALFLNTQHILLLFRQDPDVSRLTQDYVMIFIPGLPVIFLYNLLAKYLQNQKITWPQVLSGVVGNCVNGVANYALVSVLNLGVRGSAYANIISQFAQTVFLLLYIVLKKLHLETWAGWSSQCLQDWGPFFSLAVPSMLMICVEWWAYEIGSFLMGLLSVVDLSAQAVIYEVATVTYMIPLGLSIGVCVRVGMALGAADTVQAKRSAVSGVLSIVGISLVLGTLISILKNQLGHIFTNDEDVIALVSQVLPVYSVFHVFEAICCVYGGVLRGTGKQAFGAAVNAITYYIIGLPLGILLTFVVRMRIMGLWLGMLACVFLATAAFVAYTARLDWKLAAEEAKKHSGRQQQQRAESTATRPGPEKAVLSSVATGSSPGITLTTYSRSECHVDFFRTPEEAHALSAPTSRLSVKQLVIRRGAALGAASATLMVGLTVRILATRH
Briefly: Transporter mediated assay (substrate/inhibitor), MDCK-II cells. In kind it is in vitro ADME. As to conditions: human, polarized monolayer of MDCK-II cells expressing MATE2-K, No BSA, 100 μM.
Description: The MDCK-II cells were treated to express the transporter of interest. […] For the uptake assay, the net transporter-mediated uptake-rate (V) of the substrate by each SLC transporter was calculated as follows: Transporter–mediatedupdaterate(pmol/min/cm^2)=(Cellularaccumulationincellsexpressingthetransporter)−(Meancellularaccumulationincontrolcells)/Surfacearea×incubationtime
(§1) Fold of activity and percent inhibition were determined as follows: Foldofactivity=(Meanuptakerate)transporterexpressingcells/(Meanuptakerate)controlcells Percentinhibition=100−100×(Transport‐mediatedupdaterate)withinhibitor/(Transport‐mediatedupdaterate)vehiclecontrol

In data set [12] the target is T5, MATE1 (Homo sapiens, UniProt Q96FL8).
T5 construct: expressed in transfected cells; host or cells: MDCK-II cells
T5 sequence (Q96FL8 1-570): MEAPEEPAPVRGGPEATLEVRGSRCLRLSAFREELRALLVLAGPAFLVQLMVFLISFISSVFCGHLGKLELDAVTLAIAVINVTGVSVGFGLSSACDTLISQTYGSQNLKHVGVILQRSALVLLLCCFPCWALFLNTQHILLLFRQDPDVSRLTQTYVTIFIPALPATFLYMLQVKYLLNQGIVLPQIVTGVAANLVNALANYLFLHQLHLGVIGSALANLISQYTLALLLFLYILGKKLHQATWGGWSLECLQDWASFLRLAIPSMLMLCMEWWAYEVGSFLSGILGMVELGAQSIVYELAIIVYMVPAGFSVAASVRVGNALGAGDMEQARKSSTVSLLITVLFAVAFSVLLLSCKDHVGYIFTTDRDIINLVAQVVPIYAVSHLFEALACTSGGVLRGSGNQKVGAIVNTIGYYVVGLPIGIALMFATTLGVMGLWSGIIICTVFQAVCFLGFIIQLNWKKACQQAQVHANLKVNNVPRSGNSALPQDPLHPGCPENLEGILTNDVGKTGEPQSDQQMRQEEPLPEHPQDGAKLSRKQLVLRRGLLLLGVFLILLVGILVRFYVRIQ
Described as above. It is filed as in vitro ADME. The note with it: human, polarized monolayer of MDCK-II cells expressing MATE1; MATE1, No BSA, 100 μM.
Description: The MDCK-II cells were treated to express the transporter of interest. The transport of each probe substrate was determined by radiometric detection (Fig 1 in S1 File). […] For the uptake assay, the net transporter-mediated uptake-rate (V) of the substrate by each SLC transporter was calculated as follows: Transporter–mediatedupdaterate(pmol/min/cm^2)=(Cellularaccumulationincellsexpressingthetransporter)−(Meancellularaccumulationincontrolcells)/Surfacearea×incubationtime
as §1

[13] abbreviates: CYP activity (% of Control) 3A4 (Midazolam).
[14] abbreviates: CYP activity (% of Control) 3A4 (Testosterone).

Chain of CYP3A4 (P08684 2-503): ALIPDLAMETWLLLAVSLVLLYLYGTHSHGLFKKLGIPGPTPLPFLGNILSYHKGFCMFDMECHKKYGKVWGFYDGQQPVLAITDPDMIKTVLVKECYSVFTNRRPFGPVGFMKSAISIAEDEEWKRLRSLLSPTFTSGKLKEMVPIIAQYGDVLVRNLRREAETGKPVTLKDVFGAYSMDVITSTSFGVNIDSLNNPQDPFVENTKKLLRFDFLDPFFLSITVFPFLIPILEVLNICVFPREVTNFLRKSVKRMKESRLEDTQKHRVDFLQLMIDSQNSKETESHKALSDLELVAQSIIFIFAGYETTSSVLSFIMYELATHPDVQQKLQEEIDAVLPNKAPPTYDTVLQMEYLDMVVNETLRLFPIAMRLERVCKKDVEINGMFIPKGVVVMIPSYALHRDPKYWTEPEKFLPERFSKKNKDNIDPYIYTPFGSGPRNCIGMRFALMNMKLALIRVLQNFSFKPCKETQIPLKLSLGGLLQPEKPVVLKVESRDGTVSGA
Chain of CYP2D6 (P10635 whole entry): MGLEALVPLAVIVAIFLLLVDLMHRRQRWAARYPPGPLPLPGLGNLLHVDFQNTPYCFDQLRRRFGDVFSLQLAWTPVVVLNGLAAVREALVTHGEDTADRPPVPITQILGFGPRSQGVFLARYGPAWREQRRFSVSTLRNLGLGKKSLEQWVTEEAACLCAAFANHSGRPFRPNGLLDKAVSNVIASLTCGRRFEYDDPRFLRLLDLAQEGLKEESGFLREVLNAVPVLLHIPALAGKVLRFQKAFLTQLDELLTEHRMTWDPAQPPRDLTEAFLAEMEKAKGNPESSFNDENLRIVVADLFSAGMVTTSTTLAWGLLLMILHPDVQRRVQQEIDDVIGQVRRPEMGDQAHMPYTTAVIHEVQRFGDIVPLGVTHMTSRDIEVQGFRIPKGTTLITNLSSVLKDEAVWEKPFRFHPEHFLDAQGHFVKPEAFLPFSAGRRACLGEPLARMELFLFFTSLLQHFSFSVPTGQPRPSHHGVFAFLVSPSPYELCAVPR

Regarding `Cc1nc2c([nH]1)c(=O)n(C)c(=O)n2Cc1ccco1` [Furafylline], the activity at 20 min, 10 µM in [1] was 49 ± 5.3%; in data set [2], 97.3 ± 2.9%; in [3] it was 94.3 ± 8.1%; in [4] it was 89.9 ± 1.4%; in data set [5], 96.3 ± 1.4%; in [6] (setting [13]) it was 97.2 ± 4.7%. Further, the activity at 20 min, 10 µM in data set [6] (setting [14]) came to 95.1 ± 5.6%; in data set [7], 94.7 ± 1.1%.
`Cc1ncoc1-c1nnc(SCCCN2C[C@@H]3C[C@]3(c3ccc(C(F)(F)F)cc3F)C2)n1C` [GSK598,809]: the “cardiovascular effect in combination with cocaine” value in data set [8] is reported as “hypertension”.
In the case of `CC(C)(O)c1ccccc1CC[C@@H](SCC1(CC(=O)O)CC1)c1cccc(/C=C/c2ccc3ccc(Cl)cc3n2)c1` [Montelukast], the activity at 20 min, 10 µM in data set [9] came to 91 ± 1.8%; in [2], 90.5 ± 1.3%; in data set [3] it was 105 ± 2%; in [5] it was 75.4 ± 0.9%; in data set [10] it was 10.3 ± 0.7%; in data set [6] (setting [13]), 93.8 ± 3.9%. For the same molecule, the figures for the activity at 20 min, 10 µM in data set [6] (setting [14]) and in data set [7] were 93.1 ± 2% and 88.4 ± 1.8%, respectively.
Turning to `CN/C(=N/CCSCc1nc[nH]c1C)NC#N` [cimetidine, reference compound], the figures for the inhibition at 100 µM in data set [11] and in data set [12] were 95.9 ± 0.59% and 99.3 ± 0.22%, respectively.

By inhibition is commonly meant the change of the read-out against control, counted positive when it falls. A low value points to a response near the control.
